Here are results for six compounds from patent US20040138488A1, “Benzene-1 2-diol mannich bases ligands polymers and method of selective metal ions removal” (priority 2001, published 2004).

Usually melting point stands for the temperature, or range, at which the solid turns liquid. Compound `COc1cccc(CN(C)CCN(C)Cc2cccc(OC)c2O)c1O` [Example 12, 6,6′-Dimethoxy-2,2′-[ethylenebis(methyliminomethylene)]diphenol] yielded a melting point of 115 to 116 °C. On to `CCN(CCN(CC)Cc1cccc(OC)c1O)Cc1cccc(OC)c1O` [Example 13, 6,6′-Dimethoxy-2,2′-[ethylenebis(ethyliminomethylene)]diphenol], for which the melting point lay within 71 to 72 °C. With `COc1cccc(CN(C)CCCN(C)Cc2cccc(OC)c2O)c1O` [Example 14, 6,6′-Dimethoxy-2,2′-[propane-1,3-diylbis(methyliminomethylene)]diphenol], the melting point lay in the range of 78 to 79 °C.

Regarding `COc1cccc(CN2CCN(Cc3cccc(OC)c3O)CC2)c1O` [Example 15, 6,6′-Dimethoxy-2,2′-(piperazine-1,4-diylbismethylene)diphenol], the melting point was in the range of 197 to 198 °C.

Regarding `CN(CCCN(C)Cc1cccc(O)c1O)Cc1cccc(O)c1O` [Example 19, 3,3′-[Propane-1,3-diylbis(methyliminomethylene)]di(catechol)], the melting point was 130 °C (dec.).

With `Oc1cccc(CN2CCN(Cc3cccc(O)c3O)CC2)c1O` [Example 20, 3,3′-(Piperazine-1,4-diylbismethylene)di(catechol)], the melting point was 210 °C (dec.).
